Publication PMC4894417, “Quantitative High-Throughput Profiling of Environmental Chemicals and Drugs that Modulate Farnesoid X Receptor” (Scientific Reports, 2014)
Where two headings read alike, the source gives them in different places.

Experiments:
human FXR [1] = molecular target: T1, human FXR (Homo sapiens, UniProt Q96RI1); assay: FXR-bla reporter gene assay, agonist mode (qHTS); settings: for FXR agonist activity: FXR-bla assay
human FXR [2] = molecular target: T1, human FXR; assay: FXR-bla reporter gene assay, antagonist mode (CDCA-induced transactivation)
[3] = tested on: FXR-UAS-bla HEK293T cells
[4] = Cell viability assay (CellTiter Glo) in the same well as FXR-bla; settings: human, FXR-UAS-bla HEK293T cells
[5] = tested on: FXR-UAS-bla HEK293T cells; assay: as above; settings: for Cell viability IC50: Table 1, mean ± SD of 3 experiments
vitamin D receptor (VDR) = vitamin D receptor (VDR) (Homo sapiens, UniProt P11473); assay: VDR-bla reporter gene assay (agonist and antagonist modes)
[6] = molecular target: peroxisome proliferator-activated receptor gamma (PPARγ) (Homo sapiens, UniProt P37231); assay: PPARγ-bla reporter gene assay (agonist and antagonist modes)
androgen receptor (AR) = androgen receptor (AR) (Homo sapiens, UniProt P10275); assay: AR-bla reporter gene assay (agonist and antagonist modes)
FXR-LBD [7] = molecular target: T2, FXR-LBD (Homo sapiens, UniProt Q96RI1); assay: FXR TR-FRET coactivator recruitment assay, agonist mode; assay type: biochemical; settings: Table 1; coactivator SRC2-2 recruitment
T2 construct: The glutathione S-transferase (GST)-tagged FXR-LBD protein; purchased Life Technologies
T2 sequence (Q96RI1 262-486 limits assumed): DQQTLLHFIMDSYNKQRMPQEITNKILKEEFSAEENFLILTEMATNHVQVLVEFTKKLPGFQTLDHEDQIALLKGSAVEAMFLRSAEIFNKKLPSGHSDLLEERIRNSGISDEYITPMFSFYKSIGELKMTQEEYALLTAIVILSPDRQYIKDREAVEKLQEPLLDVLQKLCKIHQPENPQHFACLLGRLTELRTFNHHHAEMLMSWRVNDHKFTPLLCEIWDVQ

FXR-LBD [8] = molecular target: T2, FXR-LBD; assay: FXR TR-FRET coactivator recruitment assay, antagonist mode (50 μM CDCA); assay type: biochemical
[9] = molecular target: estrogen receptor alpha (ERα) (Homo sapiens, UniProt P03372); assay: ERα-bla reporter gene assay (agonist and antagonist modes)
[10] = molecular target: peroxisome proliferator-activated receptor delta (PPARδ) (Homo sapiens, UniProt Q03181); assay: PPARδ-bla reporter gene assay (agonist and antagonist modes)
[11] = FXR antagonist mode IC50, Table S1, primary screening, 50 µM CDCA
[12] = Table S1, primary screening, 50 µM CDCA

Sequence of peroxisome proliferator-activated receptor gamma (PPARγ) (P37231 with tags, fused parts or gaps limits assumed): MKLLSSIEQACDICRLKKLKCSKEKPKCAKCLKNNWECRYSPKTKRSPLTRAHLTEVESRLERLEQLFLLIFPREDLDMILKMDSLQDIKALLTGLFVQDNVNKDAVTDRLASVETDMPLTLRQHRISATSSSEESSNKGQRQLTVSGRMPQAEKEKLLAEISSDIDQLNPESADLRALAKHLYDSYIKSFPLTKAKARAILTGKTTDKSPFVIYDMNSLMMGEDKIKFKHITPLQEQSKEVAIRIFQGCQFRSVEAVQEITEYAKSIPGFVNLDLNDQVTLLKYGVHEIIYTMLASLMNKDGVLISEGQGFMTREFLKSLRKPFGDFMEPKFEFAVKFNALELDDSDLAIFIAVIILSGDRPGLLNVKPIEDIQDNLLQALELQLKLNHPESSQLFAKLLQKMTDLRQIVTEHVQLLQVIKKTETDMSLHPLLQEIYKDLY
T1 sequence (Q96RI1 with tags, fused parts or gaps limits assumed): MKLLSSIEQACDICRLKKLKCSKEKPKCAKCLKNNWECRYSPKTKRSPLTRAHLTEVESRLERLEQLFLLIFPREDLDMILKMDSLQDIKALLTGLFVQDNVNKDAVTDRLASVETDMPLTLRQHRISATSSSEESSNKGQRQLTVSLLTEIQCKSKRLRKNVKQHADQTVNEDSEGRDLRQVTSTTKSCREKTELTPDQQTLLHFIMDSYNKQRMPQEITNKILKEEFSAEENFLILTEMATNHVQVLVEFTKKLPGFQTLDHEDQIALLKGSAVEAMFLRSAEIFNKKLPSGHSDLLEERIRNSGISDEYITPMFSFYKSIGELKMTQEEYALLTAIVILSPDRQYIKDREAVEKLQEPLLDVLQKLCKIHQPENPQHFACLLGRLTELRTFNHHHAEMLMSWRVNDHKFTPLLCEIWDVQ
Sequence of peroxisome proliferator-activated receptor delta (PPARδ) (Q03181 with tags, fused parts or gaps limits assumed): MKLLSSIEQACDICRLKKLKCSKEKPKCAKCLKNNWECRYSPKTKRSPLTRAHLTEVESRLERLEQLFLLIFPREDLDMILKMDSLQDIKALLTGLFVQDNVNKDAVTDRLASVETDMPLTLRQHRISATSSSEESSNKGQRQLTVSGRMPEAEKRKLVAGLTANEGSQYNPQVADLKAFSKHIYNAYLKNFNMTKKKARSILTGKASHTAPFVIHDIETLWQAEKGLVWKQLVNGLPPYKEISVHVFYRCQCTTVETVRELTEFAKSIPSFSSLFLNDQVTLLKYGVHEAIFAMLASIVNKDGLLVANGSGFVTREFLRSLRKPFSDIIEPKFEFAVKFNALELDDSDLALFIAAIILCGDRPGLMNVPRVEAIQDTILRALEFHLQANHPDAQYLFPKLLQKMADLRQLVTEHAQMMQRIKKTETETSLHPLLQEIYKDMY
Sequence of vitamin D receptor (VDR) (P11473 with tags, fused parts or gaps limits assumed): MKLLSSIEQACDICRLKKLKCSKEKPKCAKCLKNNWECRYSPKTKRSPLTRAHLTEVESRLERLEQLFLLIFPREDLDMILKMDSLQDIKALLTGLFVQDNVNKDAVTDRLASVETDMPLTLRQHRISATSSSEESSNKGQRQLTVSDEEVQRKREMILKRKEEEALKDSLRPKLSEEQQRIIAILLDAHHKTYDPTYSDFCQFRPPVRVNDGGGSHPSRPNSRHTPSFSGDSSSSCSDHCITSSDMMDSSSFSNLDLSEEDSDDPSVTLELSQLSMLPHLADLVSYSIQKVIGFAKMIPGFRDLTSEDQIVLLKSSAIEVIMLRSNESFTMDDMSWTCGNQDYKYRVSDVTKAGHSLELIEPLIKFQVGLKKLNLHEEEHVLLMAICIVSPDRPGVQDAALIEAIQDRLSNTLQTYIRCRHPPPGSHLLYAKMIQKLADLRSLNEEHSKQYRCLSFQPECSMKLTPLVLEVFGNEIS
Sequence of androgen receptor (AR) (P10275 with tags, fused parts or gaps limits assumed): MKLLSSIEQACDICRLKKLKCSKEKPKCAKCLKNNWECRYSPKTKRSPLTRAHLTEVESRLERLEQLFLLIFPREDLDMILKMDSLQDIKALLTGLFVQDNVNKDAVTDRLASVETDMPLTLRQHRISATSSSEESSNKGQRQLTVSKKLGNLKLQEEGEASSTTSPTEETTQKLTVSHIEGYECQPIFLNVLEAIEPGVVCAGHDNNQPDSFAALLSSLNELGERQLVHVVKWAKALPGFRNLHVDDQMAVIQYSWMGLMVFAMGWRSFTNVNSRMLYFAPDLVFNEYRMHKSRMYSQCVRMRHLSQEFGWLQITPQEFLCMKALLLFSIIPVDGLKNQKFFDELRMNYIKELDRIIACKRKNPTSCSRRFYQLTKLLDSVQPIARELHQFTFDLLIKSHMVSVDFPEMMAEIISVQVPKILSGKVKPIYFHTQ
Sequence of estrogen receptor alpha (ERα) (P03372 with tags, fused parts or gaps limits assumed): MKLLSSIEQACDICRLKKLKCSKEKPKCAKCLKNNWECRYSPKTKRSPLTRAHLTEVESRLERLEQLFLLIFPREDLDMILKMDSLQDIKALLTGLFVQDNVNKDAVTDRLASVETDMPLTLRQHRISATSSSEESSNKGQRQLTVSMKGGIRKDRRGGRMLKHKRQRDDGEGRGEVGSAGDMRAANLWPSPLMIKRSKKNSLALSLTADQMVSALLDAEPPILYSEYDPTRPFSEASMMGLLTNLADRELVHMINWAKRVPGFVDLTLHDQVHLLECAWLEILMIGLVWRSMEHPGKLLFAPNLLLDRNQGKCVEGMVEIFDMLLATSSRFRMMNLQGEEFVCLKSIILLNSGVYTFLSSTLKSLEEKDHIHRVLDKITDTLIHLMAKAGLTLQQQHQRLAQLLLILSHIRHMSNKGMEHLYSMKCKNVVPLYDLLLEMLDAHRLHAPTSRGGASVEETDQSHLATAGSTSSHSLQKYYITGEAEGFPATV

CC1(C)CCC(C)(C)c2cc(NC(=O)c3ccc(C(=O)O)cc3)ccc21 [AM80]
FXR agonist mode Efficacy (human FXR [1]): 18 ± 7 | FXR agonist activity (human FXR [1]): selectively induced transactivation of FXR | EC50 (human FXR [1]; read-out: FXR agonist mode EC50, Table S1, primary screening): 38800 ± 2360 nM | FXR antagonist mode IC50 (human FXR [2]): Inactive | Cytotoxicity IC50 [3]: Inactive

CC(C)C[C@H](NC(=O)[C@H](Cc1ccccc1)NC(=O)c1cnccn1)B(O)O [Bortezomib]
FXR agonist mode EC50 (human FXR [1]; Table S1, primary screening): Inactive | IC50 (human FXR [2]; [11]): 440 ± 210 nM | FXR antagonist activity (human FXR [2]; FXR-bla assay, CDCA-induced): inconclusive antagonists | IC50 at 16 h [4]: 220 ± 100 nM | Cytotoxicity Efficacy ([5]; Table S1, primary screening): 57 ± 2%

COC(=O)Nc1nc2ccccc2[nH]1 [Carbendazole]
VDR activity (vitamin D receptor (VDR)): inhibiting β-lactamase expression | PPARγ activity [6]: inhibiting β-lactamase expression | AR activity (androgen receptor (AR)): inhibiting β-lactamase expression | Cytotoxicity IC50 ([5]; Table S1, primary screening): Inactive

COc1cc2c(c(OC)c1OC)-c1ccc(OC)c(=O)cc1[C@@H](NC(C)=O)CC2 [Colchicine]
FXR TR-FRET, agonist EC50 (FXR-LBD [7]): Inactive | FXR-bla, agonist EC50 (human FXR [1]; Table 1, confirmed compounds, mean ± SD of 3 experiments): Inactive | VDR activity (vitamin D receptor (VDR)): inhibiting β-lactamase expression | PPARγ activity [6]: inhibiting β-lactamase expression | IC50 (FXR-LBD [8]): 30 nM | AR activity (androgen receptor (AR)): inhibiting β-lactamase expression | FXR antagonist Efficacy (human FXR [2]): 55 ± 11% | FXR antagonist activity (human FXR [2]; FXR-bla assay, CDCA-induced): inhibiting β-lactamase expression | IC50 (human FXR [2]; FXR-bla, antagonist IC50): 30 nM | IC50 (human FXR [2]; IC50, FXR-bla antagonist mode, Figure 4, primary screen): 11 nM | Cell viability IC50 [5]: Inactive | ERα activity [9]: antagonized

C[C@H](CCC(=O)O)[C@H]1CC[C@H]2[C@@H]3CC[C@@H]4C[C@H](O)CC[C@]4(C)[C@H]3C[C@H](O)[C@]12C [DCA, Deoxycholic acid]
EC50 (human FXR [1]): 47300 nM | FXR agonist activity (human FXR [1]): selectively induced transactivation of FXR | FXR agonist mode Efficacy (human FXR [1]; Table S1, primary screening, CDCA 100%): 50 ± 12% | FXR antagonist mode IC50 (human FXR [2]; [12]): Inactive | IC50 at 16 h [4]: 66500 ± 16100 nM | Cytotoxicity Efficacy ([5]; Table S1, primary screening): 73 ± 17%

COc1cccc2c1C(=O)c1c(O)c3c(c(O)c1C2=O)C[C@@](O)(C(C)=O)C[C@@H]3O[C@H]1C[C@H](N)[C@H](O)[C@H](C)O1 [Daunorubicin]
VDR activity (vitamin D receptor (VDR)): antagonist response | PPARγ activity [6]: antagonist response | PPARδ activity [10]: antagonist response

C[C@H]1O[C@@H](O[C@H]2[C@@H](O)C[C@H](O[C@H]3[C@@H](O)C[C@H](O[C@H]4CC[C@@]5(C)[C@H](CC[C@@H]6[C@@H]5C[C@@H](O)[C@]5(C)[C@@H](C7=CC(=O)OC7)CC[C@]65O)C4)O[C@@H]3C)O[C@@H]2C)C[C@H](O)[C@@H]1O [Digoxin]
FXR agonist mode EC50 (human FXR [1]): Inactive | FXR antagonist activity (human FXR [2]): inconclusive antagonists | FXR antagonist mode Efficacy (human FXR [2]): 92 ± 10% | IC50 (human FXR [2]; [11]): 80 ± 20 nM | IC50 at 16 h [4]: 20 ± 10 nM | Cytotoxicity Efficacy ([5]; Table S1, primary screening): 35 ± 7%

COc1cccc2c1C(=O)c1c(O)c3c(c(O)c1C2=O)C[C@@](O)(C(=O)CO)C[C@@H]3O[C@H]1C[C@H](N)[C@H](O)[C@H](C)O1 [Doxorubicin]
VDR activity (vitamin D receptor (VDR)): antagonist response | PPARγ activity [6]: antagonist response | PPARδ activity [10]: antagonist response | Cell viability IC50 [5]: Inactive | ERα activity [9]: mixed agonist/antagonist response

CCOC(=O)C1=C(C)NC(C)=C(C(=O)OC)C1c1cccc(Cl)c1Cl (stereo not drawn) [Felodipine]
PPARδ activity [10]: activated

O=c1c(-c2ccc(O)cc2)coc2cc(O)cc(O)c12 [Genistein]
FXR agonist mode EC50 (human FXR [1]; Table S1, primary screening): Inactive | IC50 (human FXR [2]; FXR antagonist mode IC50): 22900 ± 3160 nM | FXR antagonist mode Efficacy (human FXR [2]; [12]): 57 ± 6% | Cytotoxicity IC50 [3]: Inactive
